Assay results taken from ChEMBL document CHEMBL1201862, “PubChem BioAssay data set” (2004).
“And” between values parts separate entries of the source, which are not always exact repeats. Equal entries are not always repeated. The source made the active and inactive calls.

Experiments:
[1] = target: DNA damage-inducible transcript 3 protein (Mus musculus, UniProt P35639); type: functional, Cricetulus griseus
[2] = target: Lysosomal acid glucosylceramidase (Homo sapiens, UniProt P04062); experiment: Dose response cell-based high throughput screening assay to identify enhancers of beta-glucosidase activity. [Related pubchem assays: 784 ]; type: functional
[3] = target: RNA-editing ligase 1, mitochondrial (Trypanosoma brucei brucei, UniProt P86926); experiment: inhibition of trypanosome RNA editing ligase – biochemical, fluorescence, Trypanosoma brucei, dose response (AID 1117295); type: functional
[4] = target: T1, Apoptotic protease-activating factor 1 (Homo sapiens, UniProt O14727); type: functional
T1 sequence (O14727 whole entry): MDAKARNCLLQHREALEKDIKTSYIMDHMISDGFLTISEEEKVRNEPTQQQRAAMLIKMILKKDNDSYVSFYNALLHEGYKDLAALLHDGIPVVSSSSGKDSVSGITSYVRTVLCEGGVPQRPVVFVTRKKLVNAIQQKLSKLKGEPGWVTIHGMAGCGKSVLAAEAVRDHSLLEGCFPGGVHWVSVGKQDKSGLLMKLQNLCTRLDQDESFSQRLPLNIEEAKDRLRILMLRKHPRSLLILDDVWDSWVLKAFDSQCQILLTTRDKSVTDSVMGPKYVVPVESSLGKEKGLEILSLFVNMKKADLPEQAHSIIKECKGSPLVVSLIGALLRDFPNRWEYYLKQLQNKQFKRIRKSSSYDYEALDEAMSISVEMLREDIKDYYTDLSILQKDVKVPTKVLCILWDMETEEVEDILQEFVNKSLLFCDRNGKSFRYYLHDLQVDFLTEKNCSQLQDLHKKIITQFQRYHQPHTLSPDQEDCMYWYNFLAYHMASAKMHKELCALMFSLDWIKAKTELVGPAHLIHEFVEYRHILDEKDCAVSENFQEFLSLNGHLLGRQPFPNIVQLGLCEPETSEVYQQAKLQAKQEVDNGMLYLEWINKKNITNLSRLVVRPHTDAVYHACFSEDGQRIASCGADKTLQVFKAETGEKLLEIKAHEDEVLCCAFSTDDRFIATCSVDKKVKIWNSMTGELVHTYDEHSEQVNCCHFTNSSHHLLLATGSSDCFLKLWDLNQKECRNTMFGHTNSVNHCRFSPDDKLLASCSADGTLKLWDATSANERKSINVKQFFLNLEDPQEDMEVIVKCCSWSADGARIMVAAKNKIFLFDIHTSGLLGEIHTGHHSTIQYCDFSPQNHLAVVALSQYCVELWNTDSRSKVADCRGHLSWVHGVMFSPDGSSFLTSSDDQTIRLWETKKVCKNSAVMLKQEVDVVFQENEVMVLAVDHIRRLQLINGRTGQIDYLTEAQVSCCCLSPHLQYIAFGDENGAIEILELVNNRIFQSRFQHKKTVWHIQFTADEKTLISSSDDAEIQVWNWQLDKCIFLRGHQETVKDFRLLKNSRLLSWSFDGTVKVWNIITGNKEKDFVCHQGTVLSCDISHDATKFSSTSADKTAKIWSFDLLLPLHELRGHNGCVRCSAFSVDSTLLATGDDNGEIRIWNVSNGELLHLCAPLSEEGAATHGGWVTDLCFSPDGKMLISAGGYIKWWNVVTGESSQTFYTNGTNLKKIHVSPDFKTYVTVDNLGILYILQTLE

[5] = viability of uninfected HEp-2 cells – cell-based, HTS, cytotoxicity control for RSV inhibitor project, dose response (AID 2410); type: functional; details: human respiratory syncytial virus
[6] = target: T2, Runt-related transcription factor 1/Core-binding factor subunit beta (Homo sapiens, UniProt Q01196+Q13951); experiment: disruptors of Runt domain/CBFb-SMMHC interaction – biochemical, FRET, Cerulean-Runt, Venus-CBFb-SMMHC, uHTS, […] (AID 1434); type: protein assay
[7] = target: T2, Runt-related transcription factor 1/Core-binding factor subunit beta; experiment: Runt domain/CBFb-SMMHC interaction disruptors – biochemical, TR-FRET (AID 1438); type: protein assay
[8] = target: T3, Protein RecA (Mycobacterium tuberculosis, UniProt P9WHJ3); experiment: Fluorescence Cell-Free Homogeneous Dose Retest to Identify Inhibitors of RecA-Intein Splicing Activity. [Related pubchem assays (depositor defined):AID2097, AID2223, AID489010, AID492950]; type: functional
T3 sequence (P9WHJ3 whole entry): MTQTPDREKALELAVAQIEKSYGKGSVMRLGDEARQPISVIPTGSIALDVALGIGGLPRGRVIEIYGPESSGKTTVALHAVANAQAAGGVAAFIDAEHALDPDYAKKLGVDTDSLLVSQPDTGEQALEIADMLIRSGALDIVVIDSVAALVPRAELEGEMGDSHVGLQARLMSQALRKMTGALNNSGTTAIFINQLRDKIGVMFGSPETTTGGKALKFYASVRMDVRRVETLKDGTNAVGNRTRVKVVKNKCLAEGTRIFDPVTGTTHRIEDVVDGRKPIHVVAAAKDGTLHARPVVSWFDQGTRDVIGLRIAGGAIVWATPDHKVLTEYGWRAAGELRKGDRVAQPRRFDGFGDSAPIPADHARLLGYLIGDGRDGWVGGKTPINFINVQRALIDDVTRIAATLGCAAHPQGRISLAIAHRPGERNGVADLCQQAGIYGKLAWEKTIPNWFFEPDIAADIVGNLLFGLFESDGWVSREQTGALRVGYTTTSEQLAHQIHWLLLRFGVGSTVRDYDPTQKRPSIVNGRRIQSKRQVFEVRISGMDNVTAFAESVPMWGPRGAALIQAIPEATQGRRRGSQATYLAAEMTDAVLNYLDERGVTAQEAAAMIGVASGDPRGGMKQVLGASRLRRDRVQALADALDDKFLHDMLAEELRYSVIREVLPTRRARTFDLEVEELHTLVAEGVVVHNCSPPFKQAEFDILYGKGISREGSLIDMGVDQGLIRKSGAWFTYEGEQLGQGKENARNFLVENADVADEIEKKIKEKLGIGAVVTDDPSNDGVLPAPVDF

[9] = target: X-box-binding protein 1 (Homo sapiens, UniProt P17861); type: functional, Cricetulus griseus;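 further: confirmatory dose-response counter-screen serving a CHOP assay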
[10] = target: T4, Replicative DNA helicase DnaB (Mycobacterium tuberculosis, UniProt P9WMR3); experiment: DnaB intein splicing inhibitors, dose response, biochemical, cell-free fluorescence (AID 449749); type: functional
T4 sequence (P9WMR3 whole entry): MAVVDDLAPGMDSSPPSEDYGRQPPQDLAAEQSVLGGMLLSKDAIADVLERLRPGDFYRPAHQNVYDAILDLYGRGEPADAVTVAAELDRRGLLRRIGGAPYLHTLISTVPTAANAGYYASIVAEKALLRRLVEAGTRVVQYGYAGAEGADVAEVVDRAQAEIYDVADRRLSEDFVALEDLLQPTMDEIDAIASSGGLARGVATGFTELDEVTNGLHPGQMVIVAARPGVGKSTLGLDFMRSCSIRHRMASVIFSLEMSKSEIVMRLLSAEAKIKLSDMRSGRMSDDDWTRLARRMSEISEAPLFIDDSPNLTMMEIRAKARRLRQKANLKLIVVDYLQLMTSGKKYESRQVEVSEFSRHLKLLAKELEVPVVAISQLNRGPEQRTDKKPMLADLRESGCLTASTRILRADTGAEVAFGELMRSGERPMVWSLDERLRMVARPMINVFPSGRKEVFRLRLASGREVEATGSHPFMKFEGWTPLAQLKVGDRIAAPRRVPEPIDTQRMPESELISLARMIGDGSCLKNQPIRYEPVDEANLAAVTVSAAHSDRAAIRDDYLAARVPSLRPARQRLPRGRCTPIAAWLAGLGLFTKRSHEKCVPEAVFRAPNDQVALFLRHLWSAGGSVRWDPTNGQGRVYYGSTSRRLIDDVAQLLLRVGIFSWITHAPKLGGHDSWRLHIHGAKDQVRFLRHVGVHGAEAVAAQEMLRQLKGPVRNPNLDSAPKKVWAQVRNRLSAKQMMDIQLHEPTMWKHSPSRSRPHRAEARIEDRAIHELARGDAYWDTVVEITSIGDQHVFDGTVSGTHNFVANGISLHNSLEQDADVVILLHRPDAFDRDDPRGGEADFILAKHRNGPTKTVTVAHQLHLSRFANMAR

[11] = test system: Streptococcus; experiment: GAS UMAA2166 growth inhibition – luminescence, BacTiterGlo, counter-screen for streptokinase expression inhibitor project, dose response (AID 1915); type: functional, organism-based;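 further: potency for reduction of bacterial viability or growth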
[12] = test system: Streptococcus sp. 'group A'; experiment: Streptococcus pyogenes SK(-)GAS viability under kanamycin – luminescence, BacTiterGlo, confirmation, counter-screen for streptokinase expression inhibitor project, dose response (AID 1900); type: functional, organism-based
[13] = test system: Vero; experiment: cells; type: functional; details: Chlorocebus sabaeus
[14] = target: T5, Streptokinase A (Streptococcus pyogenes serotype M1, UniProt P10520); experiment: viability-normalized secreted streptokinase activity reduction – plasminogen activation absorbance, OD405, dose response (AID 1914); type: functional, Streptococcus pyogenes M1 GAS;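 further: secreted streptokinase activity via plasminogen activation per viability signal from cell pellet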
T5 sequence (P10520 whole entry): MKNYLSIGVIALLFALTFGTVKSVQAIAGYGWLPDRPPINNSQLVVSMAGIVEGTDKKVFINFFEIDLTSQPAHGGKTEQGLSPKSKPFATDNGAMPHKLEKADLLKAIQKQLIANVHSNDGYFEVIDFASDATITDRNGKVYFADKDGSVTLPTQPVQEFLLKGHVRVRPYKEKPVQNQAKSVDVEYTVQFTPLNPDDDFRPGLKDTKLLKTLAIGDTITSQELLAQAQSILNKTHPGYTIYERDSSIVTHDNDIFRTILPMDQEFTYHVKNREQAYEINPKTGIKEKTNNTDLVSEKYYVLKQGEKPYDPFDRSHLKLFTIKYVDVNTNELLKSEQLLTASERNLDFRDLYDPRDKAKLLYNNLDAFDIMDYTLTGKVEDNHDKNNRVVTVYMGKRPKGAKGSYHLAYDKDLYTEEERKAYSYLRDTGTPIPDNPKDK

[15] = target: Troponin, cardiac muscle (Homo sapiens, UniProt P19429+P45379+P63316); experiment: Fluorescence-based biochemical high throughput dose response assay for activators of the calcium sensitivity of cardiac Regulated Thin Filaments (RTF). [Related pubchem assays (depositor defined):AID493008, AID493018, AID504382, AID504383]; type: protein-complex assay
[16] = HEK-293T cell viability reduction – luminescence, B-cell screen hits, cytotoxicity control for BCR NF-kB inhibitor project, dose response (AID 489021); type: functional, cell-based;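 further: HEK-293T cells carrying an NF-kB luciferase reporter; cells exposed to compound for about 14 hours before viability readout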
[17] = viability of PTEN-deleted HCT116 cells – cell-based, HCT116 PTEN knockout, dose response (AID 1047); type: functional;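 further: HCT116 colon tumor cells with PTEN knocked out; cells exposed to compound for 60 hours before readout; potency for loss of cell viability measured by luminescence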
[18] = Luminescence Cell-Based Dose Retest to Confirm Inhibitors of Cancer Stem Cells. [Related pubchem assays (depositor defined):AID2717, AID2721]; type: functional; details: Homo sapiens
[19] = viability loss of HPDE-C7K cells – cell-based, fluorescence, HTS, primary screen (AID 431); type: functional; details: Homo sapiens
[20] = HPDE-C7 pancreatic duct cell viability loss – fluorescence, HTS (AID 430); type: functional, cell-based; details: Homo sapiens
[21] = viability of HCT116 lacking mutant beta-catenin – cell-based, human colon tumor, dose response (AID 1045); type: functional;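 further: HCT116 colon tumor cells with beta catenin knocked out; cells exposed to compound for 60 hours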
[22] = target: T6, Cytochrome P450 1A2 (Homo sapiens, UniProt P05177);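 further: PubChem cytochrome P450 panel assay, CYP1A2 panel member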
T6 sequence (P05177 whole entry): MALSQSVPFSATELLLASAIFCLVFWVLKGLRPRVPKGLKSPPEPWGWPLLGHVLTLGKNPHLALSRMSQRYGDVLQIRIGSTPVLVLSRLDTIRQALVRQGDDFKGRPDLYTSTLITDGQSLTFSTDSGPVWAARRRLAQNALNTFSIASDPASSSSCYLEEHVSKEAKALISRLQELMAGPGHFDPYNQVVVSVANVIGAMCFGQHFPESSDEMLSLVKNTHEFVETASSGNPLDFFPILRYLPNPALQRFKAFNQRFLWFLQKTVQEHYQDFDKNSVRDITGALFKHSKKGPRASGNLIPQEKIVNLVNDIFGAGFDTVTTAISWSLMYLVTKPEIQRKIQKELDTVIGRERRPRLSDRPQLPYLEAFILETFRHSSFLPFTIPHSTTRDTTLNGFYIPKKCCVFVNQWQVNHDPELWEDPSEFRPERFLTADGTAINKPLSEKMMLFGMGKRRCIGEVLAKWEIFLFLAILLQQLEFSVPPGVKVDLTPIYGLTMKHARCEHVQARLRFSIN

[23] = target: Cytochrome P450 3A4 (Homo sapiens, UniProt P08684);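 further: CYP3A4 tested as one member of a cytochrome P450 panel screen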

Structure (SMILES): CCC(C)NC(=O)c1c(N)n(CC2CCCO2)c2nc3ccccc3nc12 (configuration not stated)
- Absolute IC50 (CHOP) [1]: 10 µM
- EC50 [2]: > 50 µM (not active)
- IC50 [3]: 27.7 µM (inactive)
- IC50 [4]: 18.8 µM (active)
- CC50 [5]: 20.3 µM (active)

Structure (SMILES): Cc1cc(=O)oc2c3c4c(cc12)OCCN4CCC3
- IC50 [6]: < 0.195 µM (inactive)
- IC50 [7]: > 100 µM (inactive)

Structure (SMILES): CC1(C)CC(C(CCN(Cc2ccccc2)C(=O)c2ccco2)c2ccc(F)cc2)CCO1 (configuration not stated)
- EC50 [8]: 20.9 µM (active)
- Absolute IC50 (XBP1) [9]: 10 µM
- AC50 [10]: 6.07 µM (active)

Structure (SMILES): O=C(CN1c2ccccc2Sc2ccccc21)NNC(=O)Nc1cccc(Cl)c1
- EC50 [11]: 18.5 µM (active)
- EC50 [12]: 4.41 µM (active)
- CC50 [13]: 19 µM (active)
- Absolute IC50 (CHOP) [1]: 10 µM
- EC50 [14]: > 150 µM (not active)

Structure (SMILES): O=C(Nc1ccc(Cl)cn1)C1COc2ccccc2O1 (configuration not stated)
- EC50 [15]: > 71.5 µM (inactive)

Structure (SMILES): CCOc1ccc(-c2nnc(SCC(=O)NC3CC3)o2)cc1
- IC50 [16]: > 80 µM (inactive)

Structure (SMILES): Fc1ccc(-c2n[nH]cc2CN(CC2CCC2)CC2CCCO2)c(F)c1 (configuration not stated)
- EC50 [15]: > 71.5 µM (inactive)

Structure (SMILES): C(=N\Nc1nc(Nc2ccccc2)nc(Nc2ccccc2)n1)/c1cccnc1
- IC50 [16]: 41.3 µM (inactive)

Structure (SMILES): O=c1[nH]c2ccccc2n1C1CCN(CCCC(c2ccc(F)cc2)c2ccc(F)cc2)CC1 [PIMOZIDE]
- EC50 [17]: 6.38 µM (active)
- AC50 [18]: 3.79 µM (active)
- EC50 [19]: 18.9 µM (active)
- EC50 [20]: 13.6 µM (active)
- EC50 [21]: 7.54 µM (active)
- AC50 [22]: 31.6 µM (inconclusive) and 15.8 µM (inconclusive)
- AC50 [23]: inconclusive
- Absolute IC50 (XBP1) [9]: < 10 µM
